# Test results published in patent US20240307374A1, “FORMULATION OF FURIN INHIBITOR FOR INHALATION” (BP ASSET V, INC., priority 2021, published 2024).
# Entries after “also recorded” stand apart in the source; their conditions may differ.
# Columns and labels:
# [1] = Phase I PK study, intranasal, cotton rats (plasma, lungs, BAL); assay type: in vivo, Sigmodon hispidus cotton rats
# Source text: (§1) Fifty (50) inbred, 6-8 week old, Sigmodon hispidus female and male cotton rats (source: Sigmovir Biosystems, Inc., Rockville MD) were maintained and handled under veterinary supervision in accordance with the National Institutes of Health guidelines and Sigmovir Institutional Animal Care and Use Committee's approved animal study protocol (IACUC Protocol #15). Fifteen animals were used in Phase I and 35 animals in Phase II studies. Each group of 5 animals included 3 females (the first three animals in each group) and 2 males (the last 2 animals in each group). Groups of even number of animals included equal number of males and females. Cotton rats were housed in clear polycarbonate cages and provided with standard rodent chow (Harlan #7004) and tap water ad lib.
# To prepare excipient solution, 125 mg of citric acid anhydrous and 972 mg of lactose anhydrous were dissolved in water by adding 6 ml to the powder. The solution was vortexed. Final volume was adjusted to 10 mL with water for final concentration of 65 mM citric acid anhydrous and 284 mM lactose anhydrous. The solution was stored at 4±2° C.
# (§2) Step 1. Divided 15 young S. hispidus (6-8 week old) between 3 groups (3 females and 2 males per group). Eartaged, weighed, and eyebleed all animals under isoflurane anesthesia for serum and plasma. Treated all animals intranasally with the solution indicated in Table 8-1 below, 5 0 μl/100 g animal (administered in both nostrils).
# (§3) Step 2. Measured weight, collected clinical observations (e.g., changes in appearance, movement, posture), and repeated treatments on all animals as in Step 1.
# Step 3. Measured weight, collected clinical observations (e.g., changes in appearance, movement, posture), and repeated treatments on all animals as in Step 1.
# Step 4. Measured weight, collected clinical observations (e.g., changes in appearance, movement, posture), and repeated treatments on all animals as in Step 1.
# Step 5. Measured weight, collected clinical observations, and repeated treatment on all animals as described in Step 1. After 1 h Step 6, terminally bled one animal from each group, followed by the necropsy with gross pathology examination and collection of BAL (right lung) and lung samples (left lung) for the PK assessment. After 3 h Step 7, terminally bled the second animal from each group, followed by the necropsy with gross pathology examination and collection of BAL and lung samples for the PK assessment.
# Step 8. Terminally bled the third animal from each group, followed by the necropsy with gross pathology examination and collection of BAL and lung samples for the PK assessment.
# Step 9. […]
# Step 10. Measured weight and collected clinical observations on the remaining animals. […]
# [2] = Tolerability (weight, clinical observations, gross pathology) in the Phase I study; assay type: in vivo, Sigmodon hispidus cotton rats
# Source text: as §1, §2, §3
# Step 5. Measured weight, collected clinical observations, and repeated treatment on all animals as described in Step 1. […]
# [3] = XRPD before and after drying (form stability on drying); assay type: physicochemical; settings: wet cake, vacuum drying at RT for about 3 hours
Structure (SMILES),"dose dependence of concentration in plasma and lungs ([1]; 0.1, 0.3, 1 mg/kg, highest level with 1 mg/kg 1 hr post-treatment)","persistence of level in plasma and lungs ([1]; after last intranasal dose, depending on the dose)","detection in BALF ([1]; intranasal QD for 5 days, 0.1, 0.3, 1 mg/kg per day)","detection in plasma and lungs ([1]; intranasal QD for 5 days, 0.1, 0.3, 1 mg/kg per day, 1-24 h after last dose)","noticeable effect (blood clotting) ([2]; highest dose 1 mg/kg/day, one animal, terminal bleed)","tolerability ([2]; intranasal QD for 5 consecutive days, 0.1, 0.3, 1 mg/kg per day)",form change on drying (XRPD) [3]
CC(=O)NCC1CCN(Cc2cc(Oc3ccc(N4CCN(CCC(=O)O)CC4)nc3)nc(-c3cc(Cl)cc(Cl)c3)c2)CC1 [Compound (I)],dose-dependent effect,remained elevated for several hours,much less so in BALF,detectable in the plasma and lungs,apparent increase in blood clotting time in one of the animals,well tolerated,
CC(=O)NCC1CCN(Cc2cc(Oc3ccc(N4CCN(CCC(=O)O)CC4)nc3)nc(-c3cc(Cl)cc(Cl)c3)c2)CC1 [Freeform Type C],,,,,,,transformed to freeform Type A; also recorded: Transferred to freeform Type A after drying at RT
